Measurements taken from PMC8850458, “The AUTOTAC chemical biology platform for targeted protein degradation via the autophagy-lysosome system” (Nature Communications, 2022).
pIC50: −log10 of the molar value. Where “and” joins values, the source holds several entries; their conditions need not be identical. Equal values may be shown once. Read-outs that look alike come from different tables or passages of the source.

What was measured:
[1] = test system: mutant huntingtin (Htt-NES-Q97, Htt-NLS-Q97); assay: WB autophagy flux/degradation of mutant huntingtin in HeLa cells; format: cell-based; settings: HttQ97-NLS-GFP, 24 h post-treatment; read-out: DC50 against the nuclear subpopulation of Htt
Method: (§1) Adherent cells were washed with phosphate-buffered saline (PBS) and cell pellets were lysed in SDS-based sample buffer (277.8 mM Tris-HCI, pH 6.8, 4.4% LDS, 44.4% (v/v) glycerol) containing beta-mercaptoethanol. Alternatively, cell pellets or protein supernatants were lysed in 5X Laemmli sample buffer. Whole-cell lysates were separated using SDS-PAGE, and transferred onto polyvinyllidene difluoride membranes at 100 V for 2 h at 4 °C. The membrane was incubated with a blocking solution consisting 4% skim milk in PBS solution for 30 min at room temperature and incubated with primary antibodies overnight, followed by incubation with host-specific HRP-conjugated secondary antibodies (1:10000 dilution). For signal detection, the membrane was developed with a mixture of ECL solution (Thermo Fisher Scientific) using X-ray films. Densitometry of developed bands was measured and analyzed with ImageJ (NIH, Bethesda).
Supplementary Fig. 7. AUTOTACs selectively degrade pathological mutant huntingtin.
(a) WB in HeLa-Htt-NLS-Q97-GFP cells treated with PBA-1106 or PBA-1105 (2.5 μM, 24 h) with or without HCQ (25 μM, 24 h). (b) Identical to a but with YOK-1106 instead of PBA-1105 in HeLa-Htt-NES-Q97-GFP cells. […] (k) Quantification of j (n=3 biologically independent experiments each counting 50 cells). […]

tauP301L = tauP301L (Homo sapiens, UniProt P10636, P618L); assay: WB degradation of tauP301L in SH-SY5Y-tauP301L cells; format: cell-based
Chain of tauP301L (P10636 1-441 isoform P10636-8 P301L): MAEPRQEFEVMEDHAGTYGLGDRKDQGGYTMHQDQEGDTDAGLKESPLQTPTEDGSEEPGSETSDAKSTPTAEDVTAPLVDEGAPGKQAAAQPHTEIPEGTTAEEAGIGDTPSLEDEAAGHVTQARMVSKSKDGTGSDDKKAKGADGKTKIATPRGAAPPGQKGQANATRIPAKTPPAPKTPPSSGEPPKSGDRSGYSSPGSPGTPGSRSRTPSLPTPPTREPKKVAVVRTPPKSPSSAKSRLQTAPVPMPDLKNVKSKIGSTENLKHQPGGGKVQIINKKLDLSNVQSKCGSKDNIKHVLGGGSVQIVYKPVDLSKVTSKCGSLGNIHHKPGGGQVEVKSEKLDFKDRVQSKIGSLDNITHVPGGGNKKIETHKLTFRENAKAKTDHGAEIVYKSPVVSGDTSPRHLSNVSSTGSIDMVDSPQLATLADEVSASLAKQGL
Procedure, shortened: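 Lysates in SDS/LDS or Laemmli sample buffer were separated by SDS-PAGE and blotted to PVDF. Target protein was detected with primary antibodies, HRP secondary and ECL on X-ray film, and degradation quantified by band densitometry.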

wild-type desmin = molecular target: T1, wild-type desmin (Homo sapiens, UniProt P17661); assay: WB degradation of wild-type desmin in HeLa cells; format: cell-based; settings: exogenously expressed
T1 construct: expressed in transfected cells; host or cells: HeLa, transient
T1 sequence (P17661 whole entry): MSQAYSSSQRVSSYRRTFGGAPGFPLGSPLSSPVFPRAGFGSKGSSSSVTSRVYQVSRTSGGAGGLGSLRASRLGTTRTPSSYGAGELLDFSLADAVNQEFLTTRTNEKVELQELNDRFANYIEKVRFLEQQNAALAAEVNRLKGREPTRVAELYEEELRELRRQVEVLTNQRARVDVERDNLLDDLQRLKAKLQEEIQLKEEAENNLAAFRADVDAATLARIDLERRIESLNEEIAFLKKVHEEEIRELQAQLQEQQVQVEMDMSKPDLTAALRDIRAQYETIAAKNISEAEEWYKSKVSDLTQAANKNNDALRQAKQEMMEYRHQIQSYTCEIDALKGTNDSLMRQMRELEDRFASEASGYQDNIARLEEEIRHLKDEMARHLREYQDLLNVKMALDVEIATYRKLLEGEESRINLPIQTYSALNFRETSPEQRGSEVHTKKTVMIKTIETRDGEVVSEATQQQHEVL
Method: as §1
(§2) Supplementary Fig. 5. AUTOTACs selectively target pathological aggregation-prone proteins for autophagic degradation. (a) WB in HEK293T cells treated with PBA-1105 (1 μM) and MG132 (1 μM, 24 h) at the indicated time points. (b) ICC of HeLa cells treated with the indicated compounds (1 μM, 24 h). Scale bar, 10 μm. (c) WB in HEK293T cells treated with PBA-1105 (500 nM, 24 h) and MG132 (1 μM, 24 h) under siRNA-mediated knockdown of p62 or ATG7 (20 nM, 48 h). (d) ICC in HeLa cells transiently expressing WIPI2-GFP and treated with Anle138b-F105 (1 μM, 24 h). Scale bar, 10 μm. (e) ICC in HeLa cells treated with […]
(§3) nM, 24 h). (g, h) WB in HeLa cells transiently expressing wild type or mutant (L385P) desmin-flag with LacZ-myc and treated with PBA-1105, PBA-1105b or Anle138b-F105 at the […]

p62 = molecular target: T2, p62 (Homo sapiens, UniProt Q13501); assay: In vitro p62 oligomerization assay; format: biochemical; settings: HEK293T lysate
T2 construct: expressed in transfected cells; host or cells: HEK293T, transient; whole lysate used
T2 sequence (Q13501 whole entry): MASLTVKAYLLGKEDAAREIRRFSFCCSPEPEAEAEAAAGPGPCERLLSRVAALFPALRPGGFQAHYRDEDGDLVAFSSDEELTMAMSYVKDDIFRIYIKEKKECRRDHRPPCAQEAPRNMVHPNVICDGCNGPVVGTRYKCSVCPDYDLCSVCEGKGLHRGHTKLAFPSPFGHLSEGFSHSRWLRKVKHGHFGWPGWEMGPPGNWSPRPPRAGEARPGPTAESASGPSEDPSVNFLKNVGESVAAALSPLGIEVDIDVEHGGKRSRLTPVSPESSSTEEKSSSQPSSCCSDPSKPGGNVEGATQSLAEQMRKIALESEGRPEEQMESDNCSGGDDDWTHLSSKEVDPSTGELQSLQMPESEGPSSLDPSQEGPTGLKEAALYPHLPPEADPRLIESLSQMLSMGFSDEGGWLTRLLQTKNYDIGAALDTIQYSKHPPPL
Method: HEK293T cells were transiently transfected with a plasmid encoding p62-myc/his fusion proteins. Cells were resuspended in lysis buffer [50 mM HEPES (pH 7.4), 0.15 M KCl, 0.1% Nonidet P-40), 10% glycerol, containing a mixture of protease inhibitors and phosphatase inhibitor (Abcam)]. To lyse the cells, 10 cycles of freezing and thawing was done, followed by centrifugation at 13,000 × g for 20 min at 4 °C. Using a BCA assay, the protein concentration of the supernatant was measured. A total of 1 μg of protein was incubated with 1 mM of p62-ZZ ligands in the presence of 100 μM bestatin (Enzo) at room temperature for 2 h. After incubation, each sample was mixed with non-reducing 4X LDS sample buffer, heated at 95 °C for 10 min, and resolved using 4–20% gradient SDS-PAGE (Bio-Rad). To monitor the conversion of p62 monomers into oligomers or aggregates, IB assay was performed using anti-myc antibody.

mutant desminL385P = molecular target: T3, mutant desminL385P (Homo sapiens, UniProt P17661, L385P); assay: WB degradation of mutant desmin in HeLa cells; format: cell-based; settings: exogenously expressed
T3 construct: expressed in transfected cells; host or cells: HeLa, transient
T3 sequence (P17661 whole entry L385P): as the sequence (P17661 whole entry) above, with L385P counted along it
Method: as §1, §2, §3

HeLa cells = assay: Flow cytometry (propidium iodide, sub-G1); format: cell-based; settings: 1 µM, 48 h
Method: Cell death and cell cycle arrest were quantified by staining cells with propidium iodide for flow cytometry with a BD FACSCalibur (BD Biosciences) according to the manufacturer’s instructions. […] Cells were collected by centrifugation and fixed in 70% ethanol at 4 °C for 24 h. Cells were washed with PBS and stained with propidium iodide (10 µg/mL) with RNAse treatment at 37 °C for 30 min. DNA content at each cell cycle checkpoint was measured and analyzed using BD CellQuest Pro (BD Biosciences) and ModFit LT Systems (Verity Software House).

[2] = molecular target: T4, methionine aminopeptidase 2 (MetAP2) (Homo sapiens, UniProt P50579); assay: Western blot degradation of MetAP2; format: cell-based; settings: for DC50: read-out: DC50 for MetAP2
T4 construct: Targeted autophagic degradation of endogenous oncoproteins by AUTOTAC; endogenous in cells; host or cells: HEK293 / HEK293T, U87-MG
T4 sequence (P50579 whole entry): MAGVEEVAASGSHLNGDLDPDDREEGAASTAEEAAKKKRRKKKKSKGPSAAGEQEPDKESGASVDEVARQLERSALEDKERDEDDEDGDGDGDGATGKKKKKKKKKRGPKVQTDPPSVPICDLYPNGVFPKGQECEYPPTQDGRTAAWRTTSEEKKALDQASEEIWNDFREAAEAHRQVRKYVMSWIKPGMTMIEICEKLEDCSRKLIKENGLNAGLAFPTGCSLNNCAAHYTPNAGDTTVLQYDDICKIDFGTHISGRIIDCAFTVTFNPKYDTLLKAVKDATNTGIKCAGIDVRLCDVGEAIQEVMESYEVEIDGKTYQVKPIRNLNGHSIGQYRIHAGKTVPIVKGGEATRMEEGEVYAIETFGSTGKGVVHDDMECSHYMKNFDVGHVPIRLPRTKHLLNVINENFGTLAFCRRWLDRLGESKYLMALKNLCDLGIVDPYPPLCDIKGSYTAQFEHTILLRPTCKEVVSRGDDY
Method: as §1

[3] = test system: U87-MG glioblastoma cells; assay: Wound healing assay in U87-MG cells; format: cell-based; settings: as early as 4 h and up to 24 h post-scratch
Method: To analyze cell migration in two dimensions, U-87 MG or ACHN cells were plated to a monolayer. Cells were scratched with a sterile 10 μl pipette tip and the debris was removed using medium. Cells were treated with compounds and incubated for different time to monitor cell behavior. Photographs were obtained using a microscope at different time point.

E1 = test system: E1; set-up: method as in printed; settings: authors' reply, ref not given; cited from earlier work

Structure (SMILES): Fc1ccc(COc2cccc(CNCCOCCOCCNc3cccc(-c4cc(-c5ccc6c(c5)OCO6)n[nH]4)c3)c2)cc1 [Anle138b-F105]
- DC50 [1]: ~3 nM
- persistence of mutant tau degradation post-washout (tauP301L; 100 nM 24 h, then washout): at least 8 h
- DC50 (tauP301L; SH-SY5Y-tauP301L cells): ~3 nM
- degradation of wild-type desmin (wild-type desmin): not wild-type desmin
- p62 self-oligomerization (p62): facilitated p62 self-polymerization
- degradation of mutant desminL385P (mutant desminL385P): induced the degradation

Structure (SMILES): COC1C(OC(=O)C=CC=CC=CC=CC(=O)NCCOCCOCCNCc2cccc(OCc3ccccc3)c2)CCC2(CO2)C1C1(C)OC1CC=C(C)C (centres unmarked) [Fumagillin-105]
- programmed cell death (sub-G1 subpopulation) (HeLa cells): induced programmed cell death
- MetAP2 normalized to control, AVG % ([2]; 293T, 24 h, 1nM): 99.8808%
- MetAP2 normalized to control, AVG % ([2]; 293T, 24 h, 10nM): 77.0205%
- MetAP2 normalized to control, AVG % ([2]; 293T, 24 h, 100nM): 98.7214%
- MetAP2 normalized to control, AVG % ([2]; 293T, 24 h, 1uM): 25.6004%
- MetAP2 normalized to control, AVG % ([2]; 293T, 24 h, 2.5uM): 44.4377%
- MetAP2 normalized to control, AVG % ([2]; 293T, 24 h, 5uM): 22.9281%
- MetAP2 normalized to control, AVG % ([2]; 293T, 24 h, 10uM): 19.1769%
- Dmax, 24 hr for MetAP2 ([2]; HEK293 cells): 1 to 10 µM
- remaining activity at 0.001 µM ([2]; HEK-293T, 24 h, 293T, 24 h, 1nM, single experiments, read-out: MetAP2 normalized to GAPDH and to control, percentage): 98.3%
- remaining activity at 0.1 µM ([2]; HEK-293T, 24 h, 293T, 24 h, 100nM, single experiments, read-out: MetAP2 normalized to GAPDH and to control, percentage): 98%
- remaining activity at 1 µM ([2]; HEK-293T, 24 h, 293T, 24 h, 1uM, single experiments, read-out: MetAP2 normalized to GAPDH and to control, percentage): 19.3%
- remaining activity at 2.5 µM ([2]; HEK-293T, 24 h, 293T, 24 h, 2.5uM, single experiments, read-out: MetAP2 normalized to GAPDH and to control, percentage): 52.8%
- DC50 ([2]; U87-MG glioblastoma cells, 24 h): ~500 nM
- DC50 ([2]; HEK293 cells (legend: HEK293T), 24 h): ~700 nM and 701 nM
- inhibition of migration [3]: more efficiently inhibited the migration

Structure (SMILES): CCOC(=O)c1ccc(N2NC(=O)/C(=C/c3ccc([N+](=O)[O-])o3)C2=O)cc1 [pyr41]
- pIC50 (E1): > 5.00
